# Laboratory results from patent US20070021391A1, “Preventive/remedy for urinary disturbance” (priority 2003, published 2007).
# Where a name gives a salt, the structure may show the parent alone.
# Experiments:
# [1] = target: T1, butyrylcholine esterase of human serum origin (Homo sapiens, UniProt P06276); assay: biochemical; assay type: biochemical; conditions: mean value of twice tests; read-out: BuChE IC50
# T1 construct: butyrylcholine esterase of human serum origin; purchased Biogenesis, Poole, UK; host or cells: human serum
# T1 sequence (P06276 29-602): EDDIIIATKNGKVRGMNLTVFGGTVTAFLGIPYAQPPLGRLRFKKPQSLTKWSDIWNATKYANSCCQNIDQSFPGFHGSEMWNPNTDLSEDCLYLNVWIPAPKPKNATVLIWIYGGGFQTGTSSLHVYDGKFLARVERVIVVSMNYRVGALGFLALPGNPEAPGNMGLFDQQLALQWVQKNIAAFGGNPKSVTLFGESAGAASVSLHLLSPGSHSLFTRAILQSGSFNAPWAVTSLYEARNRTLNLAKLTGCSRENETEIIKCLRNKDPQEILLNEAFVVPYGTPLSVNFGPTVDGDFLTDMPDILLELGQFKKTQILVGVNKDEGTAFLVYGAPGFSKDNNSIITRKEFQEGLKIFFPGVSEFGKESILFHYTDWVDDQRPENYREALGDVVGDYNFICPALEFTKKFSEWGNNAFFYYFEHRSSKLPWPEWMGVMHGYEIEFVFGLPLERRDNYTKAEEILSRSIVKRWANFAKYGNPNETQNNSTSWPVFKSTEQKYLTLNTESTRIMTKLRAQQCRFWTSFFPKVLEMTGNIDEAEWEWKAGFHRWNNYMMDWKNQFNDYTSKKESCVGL
# [2] = test system: Hartley male guinea pig, urethane anesthesia; assay: Pressure/flow study using guinea pig under continuous phenylephrine (Example 4); assay type: in vivo; conditions: 0.1 mg/kg, i.v.; phenylephrine 3 μg/animal/min
# Description: A parameter (the maximum urine flow rate) at urination and a parameter (bladder compliance) at the collection of urine were also measured by a method similar as Example 3 shown below, with respect to the compounds B1 to B6 ([Table 8]).
# A Hartley male guinea pig of 4 to 5 weeks old (Japan SLC) was used. After urethane anesthesia, the medial incision of the lower abdomen was carried out, and the bladder was exposed. Two injection needles (20G) with which a polyethylene tube (PE-100) was linked were inserted in the bladder, and one needle was used for injection of saline and another needle was used for measurement of the inner pressure of the bladder. A catheter was inserted in fernoral vein, and phenylephrine was continuously administrated at a flow rate of 3 μg/animal/min. Saline was continuously injected at a speed of 18 mL/h, the injection was stopped after intermittent urination was confirmed 2 times at minimum, and the saline in the bladder was removed by suction. Injection was started again, and the injection was stopped when the raise of the inner pressure of the bladder just before urination was confirmed. The amount of urine eliminated was measured by an electronic weighing machine and the inner pressure of the bladder was measured using a pressure transducer. The analogue data of the weight of urine and the inner pressure of the bladder were inputted in a multi-channel data analyzer (MP-100A-CE, Biopac systems), and analyzed by a proprietary software (Acqknowledge, Biopac systems). As the parameters, the maximum urine flow rate and bladder compliance were measured. Saline in the bladder was extracted after 10 min of the intravenous administration of the compound, and injection was started again to carry out measurement. The compounds were dissolved with DMSO so that administration volume was 0.5 mL/kg. The change rate of respective parameters before and after administration of the compounds was calculated and the calibration of significant difference was carried out by a solvent administration group and t calibration.
# [3] = target: T2, acetylcholine esterase of human erythrocyte origin (Homo sapiens, UniProt P22303); assay: biochemical; assay type: biochemical
# T2 construct: acetylcholine esterase of human erythrocyte origin; purchased Sigma, St. Louis, Mo., USA; host or cells: human erythrocytes
# T2 sequence (P22303 32-617 isoform P22303-2 limits assumed): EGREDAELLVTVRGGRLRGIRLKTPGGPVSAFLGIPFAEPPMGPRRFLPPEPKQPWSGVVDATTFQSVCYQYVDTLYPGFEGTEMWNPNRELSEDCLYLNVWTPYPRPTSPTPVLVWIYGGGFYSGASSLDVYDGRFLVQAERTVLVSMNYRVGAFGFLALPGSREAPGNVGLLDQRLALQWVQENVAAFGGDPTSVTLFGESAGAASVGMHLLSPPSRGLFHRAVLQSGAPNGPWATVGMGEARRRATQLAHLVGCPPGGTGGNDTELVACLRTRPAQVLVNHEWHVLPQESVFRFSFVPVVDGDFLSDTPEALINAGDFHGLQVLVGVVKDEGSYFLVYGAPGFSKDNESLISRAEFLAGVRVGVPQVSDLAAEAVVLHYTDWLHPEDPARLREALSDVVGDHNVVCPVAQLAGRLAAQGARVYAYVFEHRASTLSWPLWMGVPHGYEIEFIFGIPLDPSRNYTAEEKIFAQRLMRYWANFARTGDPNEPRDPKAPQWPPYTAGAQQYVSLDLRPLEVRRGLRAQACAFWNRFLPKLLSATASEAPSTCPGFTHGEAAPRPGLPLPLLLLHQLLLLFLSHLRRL
# Description: The AChE inhibitory activity and the BuChE inhibitory activity were determined by a thiocholine method (Ellman method) using acetylcholine esterase of human erythrocyte origin (Sigma, St. Louis, Mo., USA) and butyrylcholine esterase of human serum origin (Biogenesis, Poole, UK). Acetylcholine esterase or butyrylcholine esterase was diluted to a concentration of 0.2 IU/mL with 80 mM tris-HCL buffers (pH=7.4) containing 0.3% bovine serum albumin (BSA) to prepare an enzyme preparation. […] The stock solution was diluted at 3-fold common ratio with 10% DMSO and 80 mM tris-HCl buffers containing 0.3% BSA. On a 96 wells microplate, 20 μL of the drug solution with a given concentration, 30 μL of 80 mM tris-HCl buffers containing 0.3% BSA and 50 μL of the enzyme preparation were distributed, and incubated at room temperature for 1 hour after shaking for 10 seconds. […] For the respective drugs, the test was repeated twice. The % of control of the increase in light absorption was calculated at each concentration with respect to the respective drugs. % of control=increase in light absorption of drug/increase in light absorption of control×100
# [4] = test system: male SD rat; assay: Acetylcholine inductive salivation in rat (Example 5); assay type: in vivo; conditions: for Amount of saliva secreted: rat
# Description: (§1) A male SD rat (CLEA Japan Inc.) with a body weight of about 400 g or a Hartley male guinea pig with a body weight of 400 to 500 g (Japan SLC) were used. After urethane anesthesia, sanitary cotton preliminarily weighed was inserted in the mouth of the animal and acetylcholine was intravenously administrated. After 5 minutes, the sanitary cotton was taken out to be weighed and the amount of saliva secreted was measured. The drug was intravenously administrated at 10 min before the administration of acetylcholine. The effect of oxybutynin was analyzed by paired t calibration and the concomitant use effect of the compound A was analyzed by William calibration.
# [5] = test system: Hartley male guinea pig; assay: Acetylcholine inductive salivation in guinea pig (Example 5); assay type: in vivo
# Description: as §1
# [6] = test system: Hartley male guinea pig, urethane anesthesia; assay: Urine flow dynamic parameters with oxybutynin and compound A (Example 6); assay type: in vivo; conditions: oxybutynin 1 mg/kg
# Description: A Hartley male guinea pig with a body weight of about 500 g (Japan SLC Hamamatsu) was used. After urethane anesthesia (1.4 g/kg, i.p.), the medial incision of the lower abdomen was carried out, and the bladder was exposed. Two injection needles (20G) with which a polyethylene tube (PE-100, Becton Dickinson, Franklin Lakes, N.J., USA) was linked were inserted in the bladder, and one needle was used for injection of saline and another needle was used for measurement of the inner pressure of the bladder. Further, a cannula (PE-10, Becton Dickinson) for injection of phenylephrine was inserted in right common jugular vein. […] The amount of urine eliminated was measured by an electronic weighing machine (GX-400, A&D, Tokyo) and the inner pressure of the bladder was measured using a pressure transducer (AP641G, NIPPON KODEN Corporation, Tokyo). The analogue data of the weight of urine and the inner pressure of the bladder were inputted in a multi-channel data analyzer (MP-100A-CE, Biopac systems), and analyzed by a proprietary software (Acqknowledge 3.7.1, Biopac systems). The sampling interval of data was 0.1 sec and a low pass filter was applied to the data of discharge amount and urine flow rate at 0.5 Hz in order to remove noise. A delay time of 0.1 sec in weighing the urine was rectified, and the urine flow rate was determined by differentiating the value of discharge amount. The dynamic state parameter of the flow of urine below was measured. A bladder volume, the maximum urine flow rate, urination efficiency (=amount of urination/bladder volume). The effect of oxybutynin was analyzed by the paired t calibration and the concomitant use effect of the compound A was analyzed by Dunnett calibration.
# [7] = acetylcholine 1 mg/kg alone, 5 minutes
smiles,measurement,setting,value
"Cn1c(=O)n(C)c2cc(C(=O)CCCCNCCc3ccccc3Cl)ccc21 [Compound B6, 5-[5-[[2-(2-chlorophenyl)ethyl]amino]pentanoyl]-1,3-dimethyl-1,3-dihydro-2H-benzoimidazol-2-one) hydrochloride]",IC50,[1],> 10000 nM
same,"Bladder compliance, proportion for value before administration",[2],98.6 ± 6.9
same,"Maximum urine flow rate, proportion for value before administration",[2],147.1 ± 26.2
same,Selectivity b/a,[3]; BuChE IC50/AChE IC50 (Table 3),>140
same,IC50,"[3]; mean value of twice tests, read-out: AchE IC50",71 nM
CC(=O)OCC[N+](C)(C)C [Acetylcholine],Amount of saliva secreted,[4]; [7],0.27 ± 0.04 g
same,Amount of saliva secreted,[5]; [7],0.23 ± 0.03 g
CCN(CC)CC#CCOC(=O)C(O)(c1ccccc1)C1CCCCC1 (centres unmarked) [Oxybutynin],"Bladder volume, proportion for value before administration (%)",[6]; iv alone,28.87 ± 7.01 %
same,"Maximum urine flow rate, proportion for value before administration (%)",[6]; iv alone,−44.42 ± 9.44 %
same,"Urination efficiency, proportion for value before administration (%)",[6]; iv alone,−66.14 ± 5.91 %
same,"action on bladder volume, maximum urine flow rate and urination efficiency","[6]; compound A 0.003, 0.01 mg/kg with oxybutynin",significant increase of bladder volume and the lowering of the maximum urine flow rate and urination efficiency were confirmed
same,action on acetylcholine-induced secretion of saliva,[4]; rat and guinea pig (Tables 9 and 10),significantly suppressed
same,Amount of saliva secreted,[4]; oxybutynin 0.1 mg/kg + acetylcholine 1 mg/kg,0.17 ± 0.02 g
same,Amount of saliva secreted,[5]; oxybutynin 1 mg/kg + acetylcholine 1 mg/kg,0.11 ± 0.02 g
